The source of these data is patent US7476756B2, “Alkyl-, alkenyl- and alkynylcarbamate derivatives, their preparation and their application in therapeutics” (Sanofi-Aventis, priority 2005, dated 2009).

Data set [1] has as its target T1, enzyme FAAH (Fatty Acid Amido Hydrolase) (Mus musculus, UniProt O08914).
T1 construct: The membrane homogenates are prepared at the time of use by homogenization of the tissues with a Polytron; from tissue; host or cells: mouse brain (minus the cerebellum), membrane homogenate
T1 sequence (O08914 1-579): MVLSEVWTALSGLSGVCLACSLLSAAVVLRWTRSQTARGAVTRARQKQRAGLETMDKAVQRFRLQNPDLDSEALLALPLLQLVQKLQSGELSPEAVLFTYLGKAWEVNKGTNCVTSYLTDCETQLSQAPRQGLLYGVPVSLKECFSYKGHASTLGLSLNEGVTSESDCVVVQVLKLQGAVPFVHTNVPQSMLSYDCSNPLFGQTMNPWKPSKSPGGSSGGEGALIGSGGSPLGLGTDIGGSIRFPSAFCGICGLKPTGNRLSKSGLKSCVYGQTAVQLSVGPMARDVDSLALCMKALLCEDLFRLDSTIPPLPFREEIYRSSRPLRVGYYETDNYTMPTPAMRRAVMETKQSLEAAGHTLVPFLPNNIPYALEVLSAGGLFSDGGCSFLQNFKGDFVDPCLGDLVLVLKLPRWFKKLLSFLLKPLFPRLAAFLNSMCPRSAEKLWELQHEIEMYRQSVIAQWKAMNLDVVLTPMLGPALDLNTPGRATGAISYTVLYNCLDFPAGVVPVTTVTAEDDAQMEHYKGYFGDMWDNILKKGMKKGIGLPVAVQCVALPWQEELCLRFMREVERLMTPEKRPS
In words: radioenzymatic test of FAAH inhibition (hydrolysis of ((1-3H)ethanolamine)-anandamide, mouse brain membrane homogenates). The class given is biochemical. The conditions noted are these: mouse brain membrane homogenate; 10 μM anandamide; 15 minutes at 25° C.; read-out: IC50 (concentration which inhibits the control enzymatic activity of FAAH by 50%). The procedure:
The compounds of the invention have formed the subject of pharmacological trials which make it possible to determine their inhibitory effect on the enzyme FAAH (Fatty Acid Amido Hydrolase).
Thus, mouse brains (minus the cerebellum) are removed and stored at −80° C. The membrane homogenates are prepared at the time of use by homogenization of the tissues with a Polytron in a 10 mM Tris-HCl buffer (pH 8) comprising 150 mM NaCl and 1 mM EDTA. The enzymatic reaction is subsequently carried out in 70 μl of buffer comprising bovine serum albumin free from fatty acids (1 mg/ml). The test compounds, at various concentrations, the ((1-^3H)ethanolamine)-anandamide (specific activity of 15-20 Ci/mmol), diluted to 10 μM with non-radiolabelled anandamide, and the membrane preparation (400 μg of frozen tissue per assay) are successively added. After 15 minutes at 25° C., the enzymatic reaction is halted by addition of 140 μl of chloroform/methanol (2:1). The mixture is stirred for 10 minutes and is then centrifuged at 3500 g for 15 minutes. An aliquot (30 μl) of the aqueous phase comprising the (1-^3H)ethanolamine is counted by liquid scintillation.

In general, melting point refers to the temperature, or range, at which the solid turns liquid. For `CCCCCNC(=O)OC(C)C(N)=O` (stereo not drawn) [Compound 1, 2-Amino-1-methyl-2-oxoethyl (pent-1-yl)carbamate], the melting point lay within 132 to 134 °C.

`CCC/C=C/CNC(=O)OCC(=O)NC` [Compound 2, 2-(Methylamino)-2-oxoethyl ((2E)-hex-2-en-1-yl)carbamate]: the melting point was 85 to 87 °C.

The compound `CCCCCCCNC(=O)OCC(=O)NC` [Compound 13, 2-(Methylamino)-2-oxoethyl (hept-1-yl)carbamate] registered a melting point of 87 to 89 °C. Besides, the IC50 in data set [1] worked out at 91 nM.

As for `CC/C=C\CCNC(=O)OCC(=O)NC` [Compound 7, 2-(Methylamino)-2-oxoethyl ((3Z)-hex-3-en-1-yl)carbamate], the melting point lay in the range of 72 to 74 °C.

For the compound `CCCCCCNC(=O)OCC(=O)NC` [Compound 10, 2-(Methylamino)-2-oxoethyl (hex-1-yl)carbamate], the melting point lay within 86 to 88 °C.

The compound `CCCCC/C=C/CNC(=O)OCC(N)=O` [Compound 15, 2-Amino-2-oxoethyl ((2E)-oct-2-en-1-yl)carbamate] registered a melting point of 126 to 128 °C.

As for `CCCCCCCCCCCCCCCNC(=O)OCC(=O)NC` [Compound 37, 2-(Methylamino)-2-oxoethyl (pentadec-1-yl)carbamate], the melting point lay in the range of 107 to 109 °C.

Consider `CCCCCCC(C)NC(=O)OCC(=O)NC` (stereo not drawn) [Compound 24, 2-(Methylamino)-2-oxoethyl (1-methylhept-1-yl)carbamate], for which the IC50 in data set [1] is 89 nM.

On to `CCCCCCCCCCNC(=O)OC(C)C(N)=O` (stereo not drawn) [Compound 27, 2-Amino-1-methyl-2-oxoethyl (dec-1-yl)carbamate], for which the melting point is 133 to 135 °C.

`C=CCCCCCCNC(=O)OCC(N)=O` [Compound 20, 2-Amino-2-oxoethyl (oct-7-en-1-yl)carbamate] showed a melting point of 122 to 124 °C.

`CCCCCCCCCCCCCCCCCCCNC(=O)OCC(=O)NC` [Compound 43, 2-(Methylamino)-2-oxoethyl (nonadec-1-yl)carbamate] had a melting point of 113 to 115 °C.

As for `CCCCCCCCCCCCCCCCCCCNC(=O)OCC(=O)NC` [Compound 41, 2-(Methylamino)-2-oxoethyl ((methyl)octadec-1-yl)carbamate], the melting point was in the range of 85 to 87 °C.

Compound `CCCCCCCCCCCCCCNC(=O)OCC(=O)NC` [Compound 33, 2-(Methylamino)-2-oxoethyl (tetradec-1-yl)carbamate] returned a melting point of 106 to 108 °C.

`CCCCCCCCNC(=O)OC(C)C(N)=O` (stereo not drawn) [Compound 23, 2-Amino-1-methyl-2-oxoethyl (oct-1-yl)carbamate] displayed a melting point of 130 to 132 °C.

Regarding `CCCCCCCCCNC(=O)OCC(=O)NC` [Compound 25, 2-(Methylamino)-2-oxoethyl (non-1-yl)carbamate], the melting point fell in the range of 95 to 97 °C.

Regarding `CCCCC/C=C/CNC(=O)OCC(=O)NC` [Compound 14, 2-(Methylamino)-2-oxoethyl ((2E)-oct-2-en-1-yl)carbamate], the melting point was 80 to 82 °C.

In turn, `CNC(=O)COC(=O)NC1CCCCCCC1` [Compound 22, 2-(Methylamino)-2-oxoethyl (cyclooct-1-yl)carbamate] came in with a melting point of 81 to 83 °C. The IC50 in data set [1] came out at 696 nM.

On to `CCCC/C=C\CCNC(=O)OCC(=O)NC` [Compound 16, 2-(Methylamino)-2-oxoethyl ((3Z)-oct-3-en-1-yl)carbamate], for which the melting point is 62 to 64 °C.

As for `CC/C=C/CCNC(=O)OCC(N)=O` [Compound 6, 2-Amino-2-oxoethyl ((3E)-hex-3-en-1-yl)carbamate], the melting point was in the range of 138 to 140 °C.

Regarding `CCC/C=C/CNC(=O)OCC(N)=O` [Compound 3, 2-Amino-2-oxoethyl ((2E)-hex-2-en-1-yl)carbamate], the melting point was 126 to 128 °C.

On to `CCCC/C=C\CCNC(=O)OCC(N)=O` [Compound 17, 2-Amino-2-oxoethyl ((3Z)-oct-3-en-1-yl)carbamate], for which the melting point lay within 113 to 115 °C.

Take `CC/C=C\CCCCNC(=O)OCC(=O)NC` [Compound 19, 2-(Methylamino)-2-oxoethyl ((5Z)-oct-5-en-1-yl)carbamate]: the melting point fell in the range of 69 to 71 °C.

In turn, `CCCCCC/C=C\CCCCCCCCNC(=O)OCC(N)=O` [Compound 34, 2-Amino-2-oxoethyl ((9Z)-hexadec-9-en-1-yl)carbamate] yielded a melting point of 127 to 129 °C.

`CCCCCCCCCCC/C=C\CCCCCNC(=O)OCC(N)=O` [Compound 39, 2-Amino-2-oxoethyl ((6Z)-octadec-6-en-1-yl)carbamate] returned a melting point of 100 to 102 °C.

On to `CCCCCCCCCCCCNC(=O)OCC(=O)NC` [Compound 30, 2-(Methylamino)-2-oxoethyl (dodec-1-yl)carbamate], for which the melting point lay in the range of 103 to 105 °C.

For `CCCCCCCCCCNC(=O)OCC(=O)NC` [Compound 26, 2-(Methylamino)-2-oxoethyl decylcarbamate], the melting point lay within 98 to 100 °C.

With `CC/C=C/C/C=C/C/C=C/CCCCCCCCCCNC(=O)OCC(=O)NC` [Compound 45, 2-(Methylamino)-2-oxoethyl ((11E,14E,17E)-icosa-11,14,17-trien-1-yl)carbamate], the melting point was 57 to 59 °C.

Compound `CNC(=O)COC(=O)NC1CCCCCCCCCCC1` [Compound 29, 2-(Methylamino)-2-oxoethyl (cyclododec-1-yl)carbamate] displayed a melting point of 171 to 173 °C.

Compound `CCC/C=C\CNC(=O)OCC(=O)NC` [Compound 9, 2-(Methylamino)-2-oxoethyl ((2Z)-hex-2-en-1-yl)carbamate] registered a melting point of 74 to 76 °C.

For the compound `CCC/C=C\CNC(=O)OCC(N)=O` [Compound 4, 2-Amino-2-oxoethyl ((2Z)-hex-2-en-1-yl)carbamate], the melting point fell in the range of 102 to 104 °C.

`CCCCCCCCCCC/C=C\CCCCCNC(=O)OCC(=O)NC` [Compound 40, 2-(Methylamino)-2-oxoethyl ((6Z)-octadec-6-en-1-yl)carbamate] came in with a melting point of 72 to 74 °C.

In the case of `CC/C=C\CCCCNC(=O)OCC(N)=O` [Compound 18, 2-Amino-2-oxoethyl ((5Z)-oct-5-en-1-yl)carbamate], the melting point was 122 to 124 °C.

The compound `C=CCCCCCCNC(=O)OCC(=O)NC` [Compound 21, 2-(Methylamino)-2-oxoethyl (oct-7-en-1-yl)carbamate] had a melting point of 72 to 74 °C.

`CC/C=C\CCCCCCCCCCNC(=O)OCC(N)=O` [Compound 31, 2-amino-2-oxoethyl ((11Z)-tetradec-11-en-1-yl)carbamate] gave a melting point of 120 to 123 °C.

Regarding `CC/C=C\CCCCCCCCCCNC(=O)OCC(=O)NC` [Compound 32, 2-(Methylamino)-2-oxoethyl ((11Z)-tetradec-11-en-1-yl)carbamate], the melting point was in the range of 79 to 81 °C.

On to `CCCCCCNC(=O)OC(C)C(N)=O` (stereo not drawn) [Compound 11, 2-Amino-1-methyl-2-oxoethyl (hex-1-yl)carbamate], for which the melting point was in the range of 123 to 125 °C.

In turn, `CCCCCCCC/C=C/CCCCCCCCCCNC(=O)OCC(=O)NC` [Compound 47, 2-(Methylamino)-2-oxoethyl ((11E)-icosa-11-en-1-yl)carbamate] registered a melting point of 77 to 79 °C. Also, the IC50 in data set [1] amounted to 154 nM.

Consider `CCCCCCCCCCCCC(C)NC(=O)OCC(=O)NC` (stereo not drawn) [Compound 36, 2-(Methylamino)-2-oxoethyl (1-methyltridecyl)carbamate], for which the melting point was 82 to 84 °C.

Consider `CCCCC/C=C/C/C=C/CCCCCCCCCCNC(=O)OCC(=O)NC` [Compound 46, 2-(Methylamino)-2-oxoethyl ((11E,14E)-icosa-11,14-dien-1-yl)carbamate], for which the melting point fell in the range of 58 to 60 °C.

The compound `CCCCCCCCCC(C)NC(=O)OCC(=O)NC` (stereo not drawn) [Compound 28, 2-(Methylamino)-2-oxoethyl (1-methyldec-1-yl)carbamate] displayed a melting point of 71 to 73 °C.

For `CCCCCC/C=C\CCCCCCCCNC(=O)OCC(=O)NC` [Compound 35, 2-(Methylamino)-2-oxoethyl ((9Z)-hexadec-9-en-1-yl)carbamate], the melting point was 69 to 71 °C.

`CC/C=C/CCNC(=O)OCC(=O)NC` [Compound 8, 2-(Methylamino)-2-oxoethyl ((3E)-hex-3-en-1-yl)carbamate] returned a melting point of 88 to 90 °C.
